We go through 9 compounds from patent publication US5484940A, “Substituted 3-indolyl-5-pyrazolone compounds” (priority 1994, dated 1996).

The structures appear in SMILES notation. Some results are limits rather than exact numbers.

The subject of one data set is 293 751 SWE cells. In words: Cytotoxicity (MTT) in 293 751 SWE cells. It is filed as cell-based, human. Particulars: concentration not given. As for the experimental part: (§1) This screening assay employed cells (K293=human kidney cell line) which were stably transfected with the gene for amyloid precursor protein 751 (APP751) containing the double mutation Lys651 Met652 to Asn651 Leu652 (APP751 numbering) in the manner described in International Patent Application Publication No. 94/10569^1 and Citron et al.^16. This mutation is commonly called the Swedish mutation and the cells, designated as "293 751 SWE", were plated in Coming 96-well plates at 1.5-2.5×10^4 cells per well in Dulbecco's minimal essential media plus 10% fetal bovine serum. Cell number is important in order to achieve β-amyloid ELISA results within the linear range of the assay (~0.2 to 2.5 ng per mL).
Cytotoxic effects of the compounds were measured by a modification of the method of Hansen, et al.^17. To the cells remaining in the tissue culture plate was added 25 μL of a 3,(4,5-dimethylthiazol-2-yl)2,5-diphenyltetrazolium bromide (MTT) stock solution (5 mg/mL) to a final concentration of 1 mg/mL. Cells were incubated at 37° C. for one hour, and cellular activity was stopped by the addition of an equal volume of MTT lysis buffer (20% w/v sodium dodecylsulfate in 50% dimethylformamide, pH 4.7). Complete extraction was achieved by overnight shaking at room temperature. The difference in the OD562nm and the OD650nm was measured in a Molecular Device's UVmax microplate reader as an indicator of the cellular viability.

A further data set relates to rat cortical neurons. The data set is described as follows: Inhibition of toxicity of β-amyloid peptide to rat neuronal cells (alamarBlue). In kind it is cell-based. Particulars: 10 to 20 μM β-amyloid peptide, 2-3 days; on average where more than one duplicate experiment; compound concentration not stated. As for the experimental part: (§2) The purpose of this test is to determine the effect of 3-indolyl-5-pyrazolone compounds on the toxicity of β-amyloid peptide to neuronal cells.
Primary rat cortical cultures were established from 18 day rat fetuses. Cortical tissue was dissociated by incubation in a trypsin/EDTA solution (0.05% trypsin+0.53 mM EDTA in HBSS; GIBCO Laboratories, Grand Island, N.Y., USA) for 20 minutes at 37° C. The trypsin was then inactivated by resuspending the cells in serum-containing medium (DMEM/FBS): Dulbecco's Modified Eagles' Medium (DMEM) containing 4.5 g/L glucose, 1 mM sodium pyruvate, 1 mM glutamine, 100 Units/mL penicillin, 100 μg/mL streptomycin, and supplemented with 10% heat-inactivated fetal bovine serum (GIBCO Laboratories, Grand Island, N.Y., USA). Cells were then pelleted by centrifugation and resuspended in a chemically-defined medium (DMEM/B27: DMEM containing B27 supplement; GIBCO Laboratories, Grand Island, N.Y., USA) in place of FBS. Polyethyleneimine (PEI; Sigma Chemical Company, St. Louis, Mo., USA)-coated 6.4 mm (96-well) dishes were timed once with DMEM/FBS, and then seeded at 0.75 to 1.25×10^5 cells per well in 0.1 mL DMEM/B27. Cultures were maintained in a H2 O-saturated incubator with an atmosphere of 90% air/10% CO2 at 37° C. Cell viability was visually assessed by phase contrast microscopy and quantified by measuring the reduction of alamarBlue™ (Alamar biosciences, Inc., Sacramento, Calif., USA) as described below. Serum replacement with B27 supplement yields nearly pure neuronal cultures as judged by immunocytochemistry for glial fibrillary acidic protein and neuron-specific enolase (Brewer, et al.^20)
(§3) β-amyloid peptide stock solutions were prepared as 1 mM stocks in sterile, doubly distilled water immediately prior to addition to cultures. Rat cortical neurons were exposed to β-amyloid peptide by removing the culture medium and replacing it with DMEM/N2 (GIBCO Laboratories,Grand Island, N.Y., USA) containing 10 to 20 μM β-amyloid peptide. Human cortical neurons were exposed to test compound plus β-amyloid peptide by removing the culture medium and replacing it with MEM containing 50 μM β-amyloid peptide. Cultures were maintained for 2-3 days before neuronal survival was quantified using alamarBlue™.
(§4) The alamarBlue™ assay incorporates a fluorometric/colorimetric metabolic indicator (Alamar Biosciences, Inc. Sacramento, Calif., USA). Viable cells convert alamarBlue™ from an oxidized (non-fluorescent, blue) form to a reduced (fluorescent, red) form. Assays were preformed by replacing the culture media with a 10% alamarBlue™ solution in DMEM (rat cortical cultures) or MEM (human cortical cultures).
On the technique in general: Alamar Blue is a resazurin reagent that responds to reducing activity.

Data set [1] relates to β-amyloid peptide production. The data set is described as follows: Cellular screen for inhibitors of β-amyloid production (ELISA, 293 751 SWE cells). It is filed as cell-based, human. To be noted: 2 h pretreatment + 2 h, normalized for cytotoxicity (MTT), concentration not given. How it is done:
as §1
Following overnight incubation at 37° C. in an incubator equilibrated with 10% carbon dioxide, media were removed and replaced with 200 μL of a substituted 3-indolyl-5-pyrazolone (drug) containing media per well for a two hour pretreatment period and cells were incubated as above.
At the end of the pretreatment period, the media were again removed and replaced with fresh drag containing media as above and cells were incubated for an additional two hours. After treatment, plates were centrifuged in a Beckman GPR at 1200 rpm for five minutes at room temperature to pellet cellular debris from the conditioned media. From each well, 100 μL of conditioned media or appropriate dilutions thereof were transferred into an ELISA plate precoated with antibody 266 against amino acids 13-28 of β-amyloid peptide as described in International Patent Application Publication No. 94/10569^1 and stored at 4° C. overnight. An ELISA assay employing labelled antibody 6C6 against amino acids 1-16 of β-amyloid peptide was run the next day to measure the amount of β-amyloid peptide produced.
The results of the β-amyloid peptide ELISA were fit to a standard curve and expressed as ng/mL β-amyloid peptide. […] All results are the mean and standard deviation of at least six replicate assays.

The test system of another data set is human cortical neurons. The data set is described as follows: Inhibition of toxicity of β-amyloid peptide to human neuronal cells (alamarBlue). It is filed as cell-based. To be noted: 50 μM β-amyloid peptide, 2-3 days; on average where more than one duplicate experiment; compound concentration not stated. As for the experimental part: as §2
Primary Human Cortical Cell Culture
Primary human cortical cultures were prepared using a modification of the procedure described by Seubert, et al.^21 Following filtration through Nitex nylon screens, cortical tissue was resuspended in a trypsin/EDTA solution (0.05% trypsin+0.53 mM EDTA in HBSS; GIBCO Laboratories, Grand Island, N.Y., USA) and kept at 37° C. for 20 minutes. The trypsin was then inactivated by resuspending the cells in serum-containing medium (MEM/FBS: Modified Eagles' Medium (MEM) containing 1% glucose, 1 mM sodium pyruvate, 1 mM glutamine, and supplemented with 10% fetal bovine serum (GIBCO). Cells were then pelleted by centrifugation and resuspended in a chemically-defined medium (MEM/B27: MEM containing B27 supplement in place of FBS; GIBCO). Polyethyleneimine (PEI; Sigma Chemical Company, St. Louis, Mo., USA)-coated 6.4 mm (96-well) dishes were rinsed once with MEM/FBS, and then seeded at 0.75 to 1.25×10^5 cells per well in 0.1 mL MEM/B27. Cultures were maintained in a H2 O-saturated incubator with an atmosphere of 95% air/5% CO 2 at 37° C. The culture medium was exchanged twice weekly. Cell viability was visually assessed by phase contrast microscopy and quantified by measuring the reduction of alamarBlue™ (Alamar Biosciences, Inc., Sacramento, Calif., USA).
as §3, §4

The next data set is described as follows: Ultraviolet absorption. In kind it is physicochemical. To be noted: 0.1 mg/mL in methanol, 1 cm quartz cuvette. As for the experimental part:
The ultraviolet (UV) absorption properties of two representative substituted 3-indolyl-5-pyrazolones were evaluated and compared to indomethacin [1-(4-chlorobenzoyl)-5-methoxy-2-methyl-^1 H-indole-3-acetic acid], a compound known to absorb UV light (See page 4855 of the Merck Index, 10th Edition, Windholz, et al. Editor (1983)). Specifically, 0.1 mg/mL of 3-indolyl-5-pyrazolone (Ex. 9 or 33) or indomethacin in methanol was added to a quartz cuvette (1 cm) and the UV absorption of this solution was then measured at a wavelength of from 200 nm to 800 nm (Examples 9 and 33) and from 190 nm to 800 nm.

Take `COc1ccc2c(c1)c(CC1=NN(c3ccccc3)C(=O)C1)c(C)n2C(=O)c1ccc(Cl)cc1` [Example 8, 3-[1-(4-chlorobenzoyl)-5-methoxy-2-methyl-3-indolylmethyl]-1-phenyl-5-pyrazolone]: the “cytotoxic effect on the 293 751 SWE cells” value (from here on “cytotoxic effect”) with 293 751 SWE cells is given as “did not have a significant cytotoxic effect”. The “inhibition of the toxicity of β-amyloid peptide to rat neuronal cells” value (shortened to “inhibition … to rat neuronal cells”) in the data set on rat cortical neurons was less than 10%. In data set [1], the “reduction of β-amyloid peptide production as compared to control” value (from here on “reduction”) is “at least 20%”. Moreover, the “inhibition of the toxicity of β-amyloid peptide to human neuronal cells” value (“inhibition … to human neuronal cells” below) in the data set with human cortical neurons is “at least 25%”.

In the case of `COc1ccc2c(c1)c(CC1=NNC(=O)C1)c(C)n2C(=O)c1ccc(Cl)cc1` [Example 15, 3-[1-(4-chlorobenzoyl)-5-methoxy-2-methyl-3-indolylmethyl]-5-pyrazolone], the “inhibition … to rat neuronal cells” value in the data set with rat cortical neurons is given as less than 10%. In data set [1], the “reduction” value was less than 20%. Besides, in the data set on human cortical neurons, the “inhibition … to human neuronal cells” value was “at least 25%”.

Turning to `COc1ccc(N2N=C(Cc3c(C)n(C(=O)c4ccc(Cl)cc4)c4ccc(OC)cc34)CC2=O)cc1` [Example 23, 3-[1-(4-chlorobenzoyl)-5-methoxy-2-methyl-3-indolylmethyl]-1-(4-methoxyphenyl)-5-pyrazolone], the “cytotoxic effect” value in the data set with 293 751 SWE cells is reported as “did not have a significant cytotoxic effect”. In addition, in the data set with rat cortical neurons, the “inhibition … to rat neuronal cells” value is reported as less than 10%. In addition, the “reduction” value in data set [1] is recorded as “at least 20%”. For the same compound, the “inhibition … to human neuronal cells” value in the data set with human cortical neurons was “at least 25%”.

On to `COc1cccc(N2N=C(Cc3c(C)n(C(=O)c4ccc(Cl)cc4)c4ccc(OC)cc34)CC2=O)c1` [Example 24, 3-[1-(4-chlorobenzoyl)-5-methoxy-2-methyl-3-indolylmethyl]-1-(3-methoxyphenyl)-5-pyrazolone], for which the “cytotoxic effect” value in the data set with 293 751 SWE cells is “did not have a significant cytotoxic effect”. The “inhibition … to rat neuronal cells” value in the data set on rat cortical neurons was “at least 10%”. Moreover, in data set [1], the “reduction” value is listed as “at least 20%”. For the same compound, the “inhibition … to human neuronal cells” value in the data set with human cortical neurons is given as “at least 25%”.

Consider `COc1ccc2c(c1)c(CC1=NN(c3cccc(Cl)c3)C(=O)C1)c(C)n2C(=O)c1ccc(Cl)cc1` [Example 26, 3-[1-(4-chlorobenzoyl)-5-methoxy-2-methyl-3-indolylmethyl]-1-(3-chlorophenyl)-5-pyrazolone], for which the “cytotoxic effect” value with 293 751 SWE cells is listed as “did not have a significant cytotoxic effect”. Moreover, in the data set on rat cortical neurons, the “inhibition … to rat neuronal cells” value is on record as “at least 10%”. Further, the “reduction” value in data set [1] is “at least 20%”. Further, the “inhibition … to human neuronal cells” value in the data set with human cortical neurons was “at least 25%”.

For `COc1ccc2c(c1)c(CC1=NN(c3cc(Cl)cc(Cl)c3)C(=O)C1)c(C)n2C(=O)c1ccc(Cl)cc1` [Example 27, 3-[1-(4-chlorobenzoyl)-5-methoxy-2-methyl-3-indolylmethyl]-1-(3,5-dichlorophenyl)-5-pyrazolone], the “cytotoxic effect” value in the data set on 293 751 SWE cells was “did not have a significant cytotoxic effect”. For the same compound, in the data set on rat cortical neurons, the “inhibition … to rat neuronal cells” value is “at least 10%”. Moreover, in data set [1], the “reduction” value is reported as “at least 20%”. Moreover, the “inhibition … to human neuronal cells” value in the data set with human cortical neurons is listed as “at least 25%”.

Turning to `COc1ccc2c(c1)c(CC1=NN(c3cccc([N+](=O)[O-])c3)C(=O)C1)c(C)n2C(=O)c1ccc(Cl)cc1` [Example 30, 3-[1-(4-chlorobenzoyl)-5-methoxy-2-methyl-3-indolylmethyl]-1-(3-nitrophenyl)-5-pyrazolone], in the data set on 293 751 SWE cells, the “cytotoxic effect” value is reported as “did not have a significant cytotoxic effect”. Also, the “inhibition … to rat neuronal cells” value in the data set on rat cortical neurons is less than 10%. Also, in data set [1], the “reduction” value is recorded as “at least 20%”. Moreover, the “inhibition … to human neuronal cells” value in the data set on human cortical neurons is on record as “at least 25%”.

Take `COc1ccc2c(c1)c(CC1=NN(c3ccc(C)cc3)C(=O)C1)c(C)n2C(=O)c1ccc(Cl)cc1` [Example 34, 3-[1-(4-chlorobenzoyl)-5-methoxy-2-methyl-3-indolylmethyl]-1-(4-methylphenyl)-5-pyrazolone]: the “cytotoxic effect” value in the data set on 293 751 SWE cells is recorded as “did not have a significant cytotoxic effect”. In the data set on rat cortical neurons, the “inhibition … to rat neuronal cells” value is reported as “at least 10%”. In addition, in data set [1], the “reduction” value is “at least 20%”. For the same compound, in the data set with human cortical neurons, the “inhibition … to human neuronal cells” value is “at least 25%”.

Take `COc1ccc2c(c1)c(CC(=O)O)c(C)n2C(=O)c1ccc(Cl)cc1` [indomethacin, 1-(4-chlorobenzoyl)-5-methoxy-2-methyl-^1 H-indole-3-acetic acid, reference compound]: in “Ultraviolet absorption”, the “Abs (at λmax)” value was determined as 2.3996, the “E = Extinction coefficient” value turned out to be 23.99 AU/mg/mL/cm, the λmax is 246 nm and the “λother (shoulder)” value is reported as 318 nm.
